In the supplement of paper PMC10307832:

Tests used:
Experiment in all cases: relative viability (nuclei count vs DMSO), 5 days (fraction); higher = more cells survive
Etoposide + Decitabine = compound: COc1cc([C@@H]2c3cc4c(cc3[C@@H](O[C@@H]3O[C@@H]5CO[C@@H](C)O[C@H]5[C@H](O)[C@H]3O)[C@H]3COC(=O)[C@H]23)OCO4)cc(OC)c1O [Etoposide] + Nc1ncn([C@H]2C[C@H](O)[C@@H](CO)O2)c(=O)n1 [Decitabine] (partner 2 µM)
Procedure, shortened: (§1)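 Relative viability divides the nuclei count in treated wells by that in vehicle wells. Lung cancer cell lines were seeded in 1536-well plates, dosed by pin tool the next day, and fixed and stained after 5 days in one step with final 0.05% Triton X-100, 1% formaldehyde and 1 ug/ml Hoechst. Dosing was a single drug or a fixed anchor-drug dose plus five library-drug doses (not always all listed) in √10 steps, and values are medians of duplicate plates imaged at 4×.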

Etoposide + Crizotinib = compound: COc1cc([C@@H]2c3cc4c(cc3[C@@H](O[C@@H]3O[C@@H]5CO[C@@H](C)O[C@H]5[C@H](O)[C@H]3O)[C@H]3COC(=O)[C@H]23)OCO4)cc(OC)c1O [Etoposide] + C[C@@H](Oc1cc(-c2cnn(C3CCNCC3)c2)cnc1N)c1c(Cl)ccc(F)c1Cl [Crizotinib] (partner 1 µM)
Procedure, shortened: as §1

Bleomycin + Palbociclib = compound: CC1=C(N=C(N=C1N)[C@H](CC(=O)N)NC[C@@H](C(=O)N)N)C(=O)N[C@@H]([C@H](C2=CN=CN2)OC3C(C(C(C(O3)CO)O)O)OC4C(C(C(C(O4)CO)O)OC(=O)N)O)C(=O)N[C@H](C)[C@H]([C@H](C)C(=O)N[C@@H]([C@@H](C)O)C(=O)NCCC5=NC(=CS5)C6=NC(=CS6)C(=O)NCCC[S+](C)C)O [Bleomycin] + CC(=O)c1c(C)c2cnc(Nc3ccc(N4CCNCC4)cn3)nc2n(C2CCCC2)c1=O [Palbociclib] (partner 0.5 µM); details: main component drawn
Procedure, shortened: as §1

Bleomycin + AZD7762 = compound: CC1=C(N=C(N=C1N)[C@H](CC(=O)N)NC[C@@H](C(=O)N)N)C(=O)N[C@@H]([C@H](C2=CN=CN2)OC3C(C(C(C(O3)CO)O)O)OC4C(C(C(C(O4)CO)O)OC(=O)N)O)C(=O)N[C@H](C)[C@H]([C@H](C)C(=O)N[C@@H]([C@@H](C)O)C(=O)NCCC5=NC(=CS5)C6=NC(=CS6)C(=O)NCCC[S+](C)C)O [Bleomycin] + NC(=O)Nc1cc(-c2cccc(F)c2)sc1C(=O)N[C@H]1CCCNC1 [AZD7762] (partner 0.2 µM); details: main component drawn
Procedure, shortened: as §1

| Cell Line | relative viability (Etoposide + Decitabine; first compound 0.01 µM) | relative viability (Etoposide + Decitabine; first compound 0.03162 µM) | relative viability (Etoposide + Decitabine; first compound 0.1 µM) | relative viability (Etoposide + Decitabine; first compound 0.3162 µM) | relative viability (Etoposide + Decitabine; first compound 1 µM) | relative viability (Etoposide + Crizotinib; first compound 0.01 µM) | relative viability (Etoposide + Crizotinib; first compound 0.03162 µM) | relative viability (Etoposide + Crizotinib; first compound 0.1 µM) | relative viability (Etoposide + Crizotinib; first compound 0.3162 µM) | relative viability (Etoposide + Crizotinib; first compound 1 µM) | relative viability (Bleomycin + Palbociclib; first compound 0.01 µM) | relative viability (Bleomycin + Palbociclib; first compound 0.03162 µM) | relative viability (Bleomycin + Palbociclib; first compound 0.1 µM) | relative viability (Bleomycin + Palbociclib; first compound 0.3162 µM) | relative viability (Bleomycin + Palbociclib; first compound 1 µM) | relative viability (Bleomycin + AZD7762; first compound 0.01 µM) | relative viability (Bleomycin + AZD7762; first compound 0.03162 µM) | relative viability (Bleomycin + AZD7762; first compound 0.1 µM) | relative viability (Bleomycin + AZD7762; first compound 0.3162 µM) | relative viability (Bleomycin + AZD7762; first compound 1 µM) |
| --- | --- | --- | --- | --- | --- | --- | --- | --- | --- | --- | --- | --- | --- | --- | --- | --- | --- | --- | --- | --- |
| A549 | 0.24 | 0.326 | 0.195 | 0.114 | 0.0774 | 0.734 | 0.624 | 0.406 | 0.152 | 0.083 |  |  |  |  |  |  |  |  |  |  |
| NCI-H520 | 0.532 | 0.493 | 0.519 | 0.424 | 0.376 | 0.759 | 0.729 | 0.944 | 0.725 | 0.629 | 0.215 | 0.218 | 0.215 | 0.203 | 0.206 |  |  |  |  |  |
| NCI-H1563 |  |  |  |  |  | 0.95 | 0.757 | 0.685 | 0.595 | 0.448 |  |  |  |  |  |  |  |  |  |  |
| NCI-H1395 | 0.726 | 0.755 | 0.681 | 0.667 | 0.653 |  |  |  |  |  | 0.518 | 0.549 | 0.499 | 0.341 | 0.342 | 0.371 | 0.401 | 0.352 | 0.392 | 0.324 |
| NCI-H2228 |  |  |  |  |  | 0.633 | 0.551 | 0.457 | 0.373 | 0.218 | 0.719 | 0.683 | 0.465 | 0.411 | 0.226 |  |  |  |  |  |
| NCI-H2009 | 0.396 | 0.425 | 0.316 | 0.354 | 0.234 | 1.02 | 0.994 | 1.08 | 0.713 | 0.329 | 0.202 | 0.164 | 0.215 | 0.16 | 0.192 |  |  |  |  |  |
| SW 900 | 0.443 | 0.428 | 0.361 | 0.297 | 0.269 |  |  |  |  |  | 0.502 | 0.503 | 0.355 | 0.214 | 0.222 | 0.525 | 0.591 | 0.392 | 0.264 | 0.24 |
| IA-LM |  |  |  |  |  | 0.749 | 1.15 | 0.475 | 0.73 | 0.698 |  |  |  |  |  |  |  |  |  |  |
| SW 1573 | 0.434 | 0.5 | 0.243 | 0.159 | 0.0836 | 0.634 | 0.618 | 0.595 | 0.29 | 0.198 | 0.277 | 0.3 | 0.265 | 0.144 | 0.167 |  |  |  |  |  |
| NCI-H1703 |  |  |  |  |  |  | 0.521 | 0.584 | 0.501 | 0.162 |  |  |  |  |  | 0.131 | 0.139 | 0.128 | 0.122 | 0.114 |
| NCI-H1648 |  | 0.513 | 0.454 | 0.466 | 0.341 |  |  |  |  |  | 0.217 | 0.32 | 0.27 | 0.27 | 0.245 | 0.623 | 0.716 | 0.512 | 0.373 | 0.375 |
